Values of other authors as cited in patent US11701318B2, “Process of dyeing keratinous material comprising the use of an organosilicon compound, an effect pigment, and a film-forming polymer I” (Henkel AG & Co. KGaA, priority 2019, dated 2023).

Details: 25° C.

solubility in water	solubility in water (in words)	Compound
more than 20 % by weight		CCN(Cc1cccc(S(=O)(=O)[O-])c1)c1ccc(C(=C2C=CC(=[N+](CC)Cc3cccc(S(=O)(=O)[O-])c3)C=C2)c2ccccc2S(=O)(=O)[O-])cc1.[Na+].[Na+] [Acid Blue 9]
2.5 mg/mL		Nc1cc(S(=O)(=O)[O-])cc2cc(S(=O)(=O)[O-])c(N=Nc3ccccc3)c(O)c12.[Na+].[Na+] [Acid Red 33, disodium salt of 5-amino-4-hydroxy-3-(phenylazo)-naphthalene-2,7-disulphonate]
	highly soluble in water	O=C([O-])C1=NN(c2ccc(S(=O)(=O)[O-])cc2)C(=O)C1N=Nc1ccc(S(=O)(=O)[O-])cc1.[Na+].[Na+].[Na+] (stereo not drawn) [Acid Yellow 23, trisodium salt of 4,5-dihydro-5-oxo-1-(4-sulfophenyl)-4-((4-sulfophenyl)azo)-1H-pyrazole-3-carboxylic acid]
20 mg/mL		mixture of the sodium salts of mono- and disulfonic acids of 2-(2-quinolyl)-1H-indene-1,3(2H)-dione [Acid Yellow 3]

Compound	solubility in water	solubility in water (in words)
O=S(=O)([O-])c1ccc(N=Nc2c(O)ccc3ccccc23)cc1.[Na+] [Acid Orange 7, sodium salt of 4-[(2-hydroxy-1-naphthyl)azo]benzene sulphonate]	more than 7 g/L	
O=C([O-])c1c(Cl)c(Cl)c(Cl)c(Cl)c1-c1c2c(Br)cc(=O)c(Br)c-2oc2c(Br)c(O)cc(Br)c12.O=C([O-])c1c(Cl)c(Cl)c(Cl)c(Cl)c1-c1c2c(Br)cc(=O)c(Br)c-2oc2c(Br)c(O)cc(Br)c12.[Na+].[Na+] [Acid Red 92, disodium salt of 3,4,5,6-tetrachloro-2-(1,4,5,8-tetrabromo-6-hydroxy-3-oxoxanthen-9-yl)benzoic acid]	greater than 10 g/L	
